In patent publication US4604406A, “N-[6-methoxy-5-(perfluoroalkyl)-1-naphtholyl]-N-methylglycines and their thionaphthoyl analogs” (Ayerst, McKenna & Harrison, Inc., priority 1984, dated 1986):
Values belong to the compound of their own block, whether it stands above or below them.

Experiments:
aldose reductase [1] = biological target: aldose reductase (Homo sapiens, UniProt P15121); settings: literature report; cited from earlier work
aldose reductase [2] = biological target: aldose reductase (Bos taurus, UniProt P16116); assay: % inhibition in vitro at 10^-7 M (aldose reductase inhibition); format: biochemical
[3] = tested on: dulcitol accumulation in the lens; assay: % lowering dulcitol accumulation in vivo, lens (L), galactosemic rats; set-up: species or system rat (Sprague-Dawley); settings: 4 days
Text: (§1) Such experiments are exemplified hereinbelow after the listing of the following general comments pertaining to these experiments:
(§2) (a) Four or more groups of six male rates, 50-70 g, Sprague-Dawley strain, were used. The first group, the control group, was fed a mixture of laboratory chow (rodent laboratory chow, Purina) and glucose at 20% (w/w %) concentration. The untreated galactosemic group was fed a similar diet in which galactose is substituted for glucose. The third group was fed a diet prepared by mixing a given amount of the test compound with the galactose containing diet. The concentration of galactose in the diet of the treated groups was the same as that for the untreated galactosemic group.
(§3) (b) After four days, the animals were killed by decapitation. The eyeballs were removed and punctured with a razor blade; the freed lenses were rolled gently on filter paper and weighed. The sciatic nerves were dissected as completely as possible and weighed. Both tissues were frozen and can be kept up to two weeks before being analyzed for dulcitol.
(§4) Only two minor reagent changes were made: (a) The rinsing mixture was an aqueous 5% (w/v) trichloroacetic acid solution and (b) the stock solution was prepared by dissolving 25 mg of dulcitol in 100 ml of an aqueous trichloroacetic acid solution. [N.B.: For each experiment the average value found in the tissue from rats fed the glucose diet was subtracted from the individual values found in the corresponding rat tissue to obtain the amount of polyol accumulated.]
(§5) The figures under L, N and D represent the percentage decrease of dulcitol accumulation in the tissues of the lens, sciatic nerve and diaphragm, respectively, for treated rats as compares to untreated rats.

[4] = tested on: dulcitol accumulation in the diaphragm; assay: % lowering dulcitol accumulation in vivo, diaphragm (D), galactosemic rats; set-up: species or system rat (Sprague-Dawley); settings: 4 days
Text: as §1, §2, §4, §5

dulcitol accumulation = assay: galactosemic rats, dulcitol accumulation, overall comparison in words; format: in vivo, rat (Sprague-Dawley)
Text: The aldose reductase inhibiting property of the compounds of this invention and the utilization of the compounds in preventing, diminishing and alleviating diabetic complications are demonstrable in experiments using galactosemic rats, see Dvornik et at., cited above. Such experiments are exemplified hereinbelow after the listing of the following general comments pertaining to these experiments:
as §2, §3
as §4, with “(c) The polyol determination was performed by a modification of the procedure of M. Kraml and L. Cosyns, Clin. Biochem., 2,373 (1969). Only” for “Only”
as §5

[5] = 24.5 mg/kg/day in galactose diet

Structure (SMILES): O=C(O)CN1C(=O)c2cccc3cccc(c23)C1=O [1,3-Dioxo-1H-benz[de]isoquinoline-2(3H)-acetic acid]
inhibition of aldose reductase (aldose reductase [1]): effective inhibitor of aldose reductase

inhibition at 0.1 µM (aldose reductase [2]): 71%
Structure (SMILES): COc1ccc2c(C(=S)N(C)CC(=O)O)cccc2c1C(F)(F)C(F)(F)F [Compound 1, N-[[6-methoxy-5-(pentafluoroethyl)-1-naphthalenyl]thioxomethyl]-N-methylglycine]
% lowering dulcitol accumulation in vivo, L [3, 5]: 29% | % lowering dulcitol accumulation in vivo, D [4, 5]: 93%

inhibition at 0.1 µM (aldose reductase [2]): 56%
Structure (SMILES): COc1ccc2c(C(=O)N(C)CC(=O)O)cccc2c1C(F)(F)C(F)(F)F [Compound 2, N-[[6-Methoxy-5-(pentafluoroethyl)-1-naphthalenyl]carbonyl]-N-methylglycine]
% lowering dulcitol accumulation in vivo, D ([4]; 29 mg/kg/day in galactose diet): 68%

Structure (SMILES): COc1ccc2c(C(=S)N(C)CC(=O)O)cccc2c1C(F)(F)C(F)(F)C(F)(F)F [Compound 3, N-[[5-(heptafluoropropyl)-6-methoxy-1-naphthalenyl]thioxomethyl]-N-methylglycine]
inhibition at 0.1 µM (aldose reductase [2]): 75% | % lowering dulcitol accumulation in vivo, L ([3]; 5 mg/kg/day in galactose diet): 20% | % lowering dulcitol accumulation in vivo, D ([4]; 5 mg/kg/day in galactose diet): 76% | activity compared with tolrestat at 4 mg/kg/day (dulcitol accumulation; 5 mg/kg/day): superior to tolrestat | activity compared with tolrestat at 11 mg/kg/day (dulcitol accumulation; 5 mg/kg/day): approaches the activity of tolrestat | activity relative to tolrestat (dulcitol accumulation; about twice as active as tolrestat): about twice

Structure (SMILES): COc1ccc2c(C(=O)N(C)CC(=O)O)cccc2c1C(F)(F)C(F)(F)C(F)(F)F [Compound 4, N-[[5-(heptafluoropropyl)-6-methoxy-1-naphthalenyl]carbonyl]-N-methylglycine]
inhibition at 0.1 µM (aldose reductase [2]): 63% | % lowering dulcitol accumulation in vivo, L ([3]; 10 mg/kg/day in galactose diet): 19% | % lowering dulcitol accumulation in vivo, D ([4]; 10 mg/kg/day in galactose diet): 38% | activity compared with compound No. 7 (tolrestat) at 11 mg/kg/day (dulcitol accumulation; 10 mg/kg/day): comparable results

Structure (SMILES): COc1ccc2c(C(=S)N(C)CC(=O)O)cccc2c1C(F)(F)C(F)(F)C(F)(F)C(F)(F)C(F)(F)C(F)(F)F [Compound 5, N-[[6-Methoxy-5-(tridecafluorohexyl)-1-naphthalenyl]thioxomethyl]-N-methylglycine]
inhibition at 0.1 µM (aldose reductase [2]): 40% | % lowering dulcitol accumulation in vivo, L ([3]; 26 mg/kg/day in galactose diet): 0% | % lowering dulcitol accumulation in vivo, D ([4]; 26 mg/kg/day in galactose diet): 51%

Structure (SMILES): COc1ccc2c(C(=O)N(C)CC(=O)O)cccc2c1C(F)(F)C(F)(F)C(F)(F)C(F)(F)C(F)(F)C(F)(F)F [Compound 6, N--[[5-(Tridecafluorohexyl)-6-methoxy-1-naphthalenyl]carbonyl]-N--methylglycine]
inhibition at 0.1 µM (aldose reductase [2]): 47% | % lowering dulcitol accumulation in vivo, L ([3]; 25 mg/kg/day in galactose diet): 0% | % lowering dulcitol accumulation in vivo, D ([4]; 25 mg/kg/day in galactose diet): 0%

Structure (SMILES): COc1ccc2c(C(=S)N(C)CC(=O)O)cccc2c1C(F)(F)F [Compound 7, N--[[5-(Trifluoromethyl)-6-methoxy-1-naphthalenyl]thioxomethyl]-N--methylglycine, reference compound]
% lowering dulcitol accumulation in vivo, D ([4]; 11 mg/kg/day in galactose diet): 89%

inhibition at 0.1 µM (aldose reductase [2]): 57%
Structure (SMILES): COc1ccc2c(C(=O)N(C)CC(=O)O)cccc2c1C(F)(F)F [Compound 8, N--[ [5-(Trifluoromethyl)-6-methoxy-1-naphthalenyl]carbonyl]-N--methylglycine, reference compound]
% lowering dulcitol accumulation in vivo, L ([3]; 10 mg/kg/day in galactose diet): 0% | % lowering dulcitol accumulation in vivo, D ([4]; 10 mg/kg/day in galactose diet): 20%

Structure (SMILES): O=C1NC(=O)[C@@]2(CCOc3ccc(F)cc32)N1 [sorbinol, (S)-6-Fluoro-2,3-dihydrospiro(4H-1-benzopyran-4,4'-imidazolidine)-2',5'-dione]
inhibition of aldose reductase (aldose reductase [1]): aldose reductase inhibiting properties
